{
  "source": "paper PMC8587475",
  "about": "“Black Bean (Phaseolus vulgaris L.) Polyphenolic Extract Exerts Antioxidant and Antiaging Potential” (Molecules, 2021)",
  "biological_target": "T1, elastase from porcine pancreas (EC 3.4.21.36) (Sus scrofa, UniProt P00772)",
  "T1 construct": "gene CELA1; commercial native enzyme from porcine pancreas (Sigma-Aldrich), mature; docking model PDB 1BRU (elastase 2) is not the assay sample",
  "T1 sequence (P00772 27-266)": "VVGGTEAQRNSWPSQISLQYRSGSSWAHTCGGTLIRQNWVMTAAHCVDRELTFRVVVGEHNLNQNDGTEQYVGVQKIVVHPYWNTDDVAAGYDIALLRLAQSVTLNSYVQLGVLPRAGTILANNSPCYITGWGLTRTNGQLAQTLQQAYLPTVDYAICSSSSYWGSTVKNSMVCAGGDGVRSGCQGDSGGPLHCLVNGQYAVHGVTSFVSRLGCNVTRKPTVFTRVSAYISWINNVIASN",
  "assay": "N-succinyl-Ala-Ala-Ala-p-nitroanilide hydrolysis, absorbance at […] nm",
  "format": "biochemical",
  "data": [
    {"molecule": "Oc1cc(O)c2c(c1)OC(c1ccc(O)c(O)c1)C(O)C2", "note": "(racemic) [catechin]", "values": [
      {"measurement": "IC50", "value": 18.4, "unit": "µM"}
    ]}
  ]
}
